According to patent publication US8088815B2, “Spiroindolinone pyrrolidines” (Hoffman-La Roche Inc., priority 2009, dated 2012):

target: interaction between p53 and MDM2 proteins (Homo sapiens, UniProt Q00987); assay: HTRF assay of inhibition of the p53-MDM2 interaction (GST-MDM2 / biotinylated p53 peptide); type: binding; settings: recombinant GST-tagged MDM2 and biotinylated p53 peptide, bsa:0.02%
Sequence (Q00987 whole entry): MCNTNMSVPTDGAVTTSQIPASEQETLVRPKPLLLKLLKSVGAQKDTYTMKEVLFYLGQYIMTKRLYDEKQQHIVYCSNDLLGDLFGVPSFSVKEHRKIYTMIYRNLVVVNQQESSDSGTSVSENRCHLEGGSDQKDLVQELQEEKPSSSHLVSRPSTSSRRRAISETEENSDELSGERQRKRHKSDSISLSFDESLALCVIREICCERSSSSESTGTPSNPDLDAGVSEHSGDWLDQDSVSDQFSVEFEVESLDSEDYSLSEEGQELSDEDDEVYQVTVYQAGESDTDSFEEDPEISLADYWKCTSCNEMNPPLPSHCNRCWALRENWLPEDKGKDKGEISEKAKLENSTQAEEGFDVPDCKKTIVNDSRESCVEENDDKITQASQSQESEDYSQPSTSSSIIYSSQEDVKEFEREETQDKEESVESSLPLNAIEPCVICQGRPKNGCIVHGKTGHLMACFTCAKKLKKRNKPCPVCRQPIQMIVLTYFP

SMILES	IC50
CC(C)(C)C[C@@H]1N[C@@H](C(=O)Nc2ccc(C(N)=O)c(Cl)c2)[C@H](c2cccc(Cl)c2F)[C@]12C(=O)Nc1cc(Cl)ccc12 [Example 26, chiral (2′S,3′R,4′S,5′R)-6-chloro-4′-(3-chloro-2-fluoro-phenyl)-2′-(2,2-dimethyl-propyl)-2-oxo-1,2-dihydro-spiro[indole-3,3′-pyrrolidine]-5′-carboxylic acid (4-carbamoyl-3-chloro-phenyl)-amide]	6 nM
CN(C)C(=O)c1ccc(NC(=O)[C@@H]2N[C@@H](CC(C)(C)C)[C@@]3(C(=O)Nc4cc(Cl)ccc43)[C@H]2c2cccc(Cl)c2F)cc1 [Example 35, chiral (2′S,3′R,4′S,5′R)-6-chloro-4′-(3-chloro-2-fluoro-phenyl)-2′-(2,2-dimethyl-propyl)-2-oxo-1,2-dihydro-spiro[indole-3,3′-pyrrolidine]-5′-carboxylic acid (4-dimethylcarbamoyl-phenyl)-amide]	5 nM
CC(C)(C)C[C@@H]1N[C@@H](C(=O)Nc2ccc(C(N)=O)cc2)[C@H](c2cccc(Cl)c2F)[C@]12C(=O)Nc1cc(Cl)c(F)cc12 [Example 50, chiral (2′S,3′R,4′S,5′S)-6-chloro-4′-(3-chloro-2-fluoro-phenyl)-2′-(2,2-dimethyl-propyl)-5-fluoro-2-oxo-1,2-dihydro-spiro[indole-3,3′-pyrrolidine]-5′-carboxylic acid (4-carbamoyl-phenyl)-amide]	6 nM
CC(C)(C)C[C@@H]1N[C@@H](C(=O)Nc2ccc(C(N)=O)cc2F)[C@H](c2cccc(Cl)c2F)[C@]12C(=O)Nc1cc(Cl)ccc12 [Example 54, chiral (2′S,3′R,4′S,5′R)-6-chloro-4′-(3-chloro-2-fluoro-phenyl)-2′-(2,2-dimethyl-propyl)-2-oxo-1,2-dihydro-spiro[indole-3,3′-pyrrolidine]-5′-carboxylic acid (4-carbamoyl-2-fluoro-phenyl)-amide]	7 nM
COc1cc(C(N)=O)ccc1NC(=O)[C@@H]1N[C@@H](CC(C)(C)C)[C@@]2(C(=O)Nc3cc(Cl)ccc32)[C@H]1c1cccc(Cl)c1F [Example 60, chiral (2′S,3′R,4′S,5′R)-6-chloro-4′-(3-chloro-2-fluoro-phenyl)-2′-(2,2-dimethyl-propyl)-2-oxo-1,2-dihydro-spiro[indole-3,3′-pyrrolidine]-5′-carboxylic acid (4-carbamoyl-2-methoxy-phenyl)-amide]	5 nM
CC(C)(C)C[C@@H]1N[C@@H](C(=O)Nc2ccc(C(N)=O)cc2)[C@H](c2cccc(Cl)c2)[C@]12C(=O)Nc1cc(Cl)ccc12 [Example 65B, chiral (2′S,3′R,4′R,5′R)-6-chloro-4′-(3-chloro-phenyl)-2′-(2,2-dimethyl-propyl)-2-oxo-1,2-dihydro-spiro[indole-3,3′-pyrrolidine]-5′-carboxylic acid (4-carbamoyl-phenyl)-amide]	6 nM
CC(C)(C)C[C@@H]1N[C@@H](C(=O)Nc2ccc(C(N)=O)cc2)[C@H](c2cccc(Cl)c2F)[C@]12C(=O)Nc1cc(Cl)cc(F)c12 [Example 74, chiral (2′S,3′R,4′S,5′R)-6-chloro-4′-(3-chloro-2-fluoro-phenyl)-2′-(2,2-dimethyl-propyl)-4-fluoro-2-oxo-1,2-dihydro-spiro[indole-3,3′-pyrrolidine]-5′-carboxylic acid (4-carbamoyl-phenyl)-amide]	6 nM
COc1cc(C(N)=O)ccc1NC(=O)[C@@H]1N[C@@H](CC(C)(C)C)[C@@]2(C(=O)Nc3cc(Cl)cc(F)c32)[C@H]1c1cccc(Cl)c1F [Example 77, chiral (2′S,3′R,4′S,5′R)-6-chloro-4′-(3-chloro-2-fluoro-phenyl)-2′-(2,2-dimethyl-propyl)-4-fluoro-2-oxo-1,2-dihydro-spiro[indole-3,3′-pyrrolidine]-5′-carboxylic acid (4-carbamoyl-2-methoxy-phenyl)-amide]	5 nM
COc1cc(C(=O)O)ccc1NC(=O)[C@@H]1N[C@@H](CC(C)(C)C)[C@@]2(C(=O)Nc3cc(Cl)ccc32)[C@H]1c1cccc(Cl)c1F [Example 111, chiral 4-{[(2′S,3′R,4′S,5′R)-6-chloro-4′-(3-chloro-2-fluoro-phenyl)-2′-(2,2-dimethyl-propyl)-2-oxo-1,2-dihydro-spiro[indole-3,3′-pyrrolidine]-5′-carbonyl]-amino}-3-methoxy-benzoic acid]	5 nM
COc1cc(OCCO)ccc1NC(=O)[C@@H]1N[C@@H](CC(C)(C)C)[C@@]2(C(=O)Nc3cc(Cl)ccc32)[C@H]1c1cccc(Cl)c1F [Example 134, chiral (2′S,3′R,4′S,5′R)-6-chloro-4′-(3-chloro-2-fluoro-phenyl)-2′-(2,2-dimethyl-propyl)-2-oxo-1,2-dihydro-spiro[indole-3,3′-pyrrolidine]-5′-carboxylic acid [4-(2-hydroxy-ethoxy)-2-methoxy-phenyl]-amide]	5 nM
CC(C)(C)C[C@@H]1N[C@@H](C(=O)Nc2ccc(C#N)cc2)[C@H](c2cccc(Cl)c2F)[C@]12C(=O)Nc1cc(Cl)ccc12 [Example 137, chiral (2′S,3′R,4′S,5′R)-6-chloro-4′-(3-chloro-2-fluoro-phenyl)-2′-(2,2-dimethyl-propyl)-2-oxo-1,2-dihydro-spiro[indole-3,3′-pyrrolidine]-5′-carboxylic acid (4-cyano-phenyl)-amide]	5 nM
CC(C)(C)C[C@@H]1N[C@@H](C(=O)Nc2ccccc2)[C@H](c2cccc(Cl)c2F)[C@]12C(=O)Nc1cc(Cl)ccc12 [Example 147, chiral (2′S,3′R,4′S,5′R)-6-chloro-4′-(3-chloro-2-fluoro-phenyl)-2′-(2,2-dimethyl-propyl)-2-oxo-1,2-dihydro-spiro[indole-3,3′-pyrrolidine]-5′-carboxylic acid phenylamide]	11 nM
COc1cc(C(N)=O)ccc1NC(=O)[C@@H]1N[C@@H](CC(C)(C)C)[C@@]2(C(=O)Nc3cc(Cl)ccc32)[C@H]1c1cc(F)cc(Cl)c1 [Example 148, chiral (2′S,3′R,4′R,5′R)-6-chloro-4′-(3-chloro-5-fluoro-phenyl)-2′-(2,2-dimethyl-propyl)-2-oxo-1,2-dihydro-spiro[indole-3,3′-pyrrolidine]-5′-carboxylic acid (4-carbamoyl-2-methoxy-phenyl)-amide]	5 nM
COc1cc(S(=O)(=O)N2CCOCC2)ccc1NC(=O)[C@@H]1N[C@@H](CC(C)(C)C)[C@@]2(C(=O)Nc3cc(Cl)ccc32)[C@H]1c1cccc(Cl)c1F [Example 154, chiral (2′S,3′R,4′S,5′R)-6-chloro-4′-(3-chloro-2-fluoro-phenyl)-2′-(2,2-dimethyl-propyl)-2-oxo-1,2-dihydro-spiro[indole-3,3′-pyrrolidine]-5′-carboxylic acid [2-methoxy-4-(morpholine-4-sulfonyl)-phenyl]-amide]	4 nM
COc1cc(OC2CCOCC2)ccc1NC(=O)[C@@H]1N[C@@H](CC(C)(C)C)[C@@]2(C(=O)Nc3cc(Cl)ccc32)[C@H]1c1cccc(Cl)c1F [Example 157, chiral (2′S,3′R,4′S,5′R)-6-chloro-4′-(3-chloro-2-fluoro-phenyl)-2′-(2,2-dimethyl-propyl)-2-oxo-1,2-dihydro-spiro[indole-3,3′-pyrrolidine]-5′-carboxylic acid [2-methoxy-4-(tetrahydro-pyran-4-yloxy)-phenyl]-amide]	10 nM
COc1cc(CC(=O)OC(C)(C)C)ccc1NC(=O)[C@@H]1N[C@@H](CC(C)(C)C)[C@@]2(C(=O)Nc3cc(Cl)ccc32)[C@H]1c1cccc(Cl)c1F [Example 159, chiral (4-{[(2′S,3′R,4′S,5′R)-6-chloro-4′-(3-chloro-2-fluoro-phenyl)-2′-(2,2-dimethyl-propyl)-2-oxo-1,2-dihydro-spiro[indole-3,3′-pyrrolidine]-5′-carbonyl]amino}-3-methoxy-phenyl)-acetic acid tert-butyl ester]	14 nM
COc1cc(CC(=O)O)ccc1NC(=O)[C@@H]1N[C@@H](CC(C)(C)C)[C@@]2(C(=O)Nc3cc(Cl)ccc32)[C@H]1c1cccc(Cl)c1F [Example 160, chiral (4-{[(2′S,3′R,4′S,5′R)-6-chloro-4′-(3-chloro-2-fluoro-phenyl)-2′-(2,2-dimethyl-propyl)-2-oxo-1,2-dihydro-spiro[indole-3,3′-pyrrolidine]-5′-carbonyl]-amino}-3-methoxy-phenyl)-acetic acid]	5 nM
COc1cc(CC(N)=O)ccc1NC(=O)[C@@H]1N[C@@H](CC(C)(C)C)[C@@]2(C(=O)Nc3cc(Cl)ccc32)[C@H]1c1cccc(Cl)c1F [Example 161, chiral (2′S,3′R,4′S,5′R)-6-chloro-4′-(3-chloro-2-fluoro-phenyl)-2′-(2,2-dimethyl-propyl)-2-oxo-1,2-dihydro-spiro[indole-3,3′-pyrrolidine]-5′-carboxylic acid (4-carbamoylmethyl-2-methoxy-phenyl)-amide]	4 nM
COc1cc(OCCSC)ccc1NC(=O)[C@@H]1N[C@@H](CC(C)(C)C)[C@@]2(C(=O)Nc3cc(Cl)ccc32)[C@H]1c1cccc(Cl)c1F [Example 169, chiral (2′S,3′R,4′S,5′R)-6-chloro-4′-(3-chloro-2-fluoro-phenyl)-2′-(2,2-dimethyl-propyl)-2-oxo-1,2-dihydro-spiro[indole-3,3′-pyrrolidine]-5′-carboxylic acid [2-methoxy-4-(2-methylsulfanyl-ethoxy)-phenyl]-amide]	11 nM
COc1cc(OCCS(C)(=O)=O)ccc1NC(=O)[C@@H]1N[C@@H](CC(C)(C)C)[C@@]2(C(=O)Nc3cc(Cl)ccc32)[C@H]1c1cccc(Cl)c1F [Example 170, chiral (2′S,3′R,4′S,5′R)-6-chloro-4′-(3-chloro-2-fluoro-phenyl)-2′-(2,2-dimethyl-propyl)-2-oxo-1,2-dihydro-spiro[indole-3,3′-pyrrolidine]-5′-carboxylic acid [4-(2-methanesulfonyl-ethoxy)-2-methoxy-phenyl]-amide]	7 nM
COc1cc(OCCCS(C)(=O)=O)ccc1NC(=O)[C@@H]1N[C@@H](CC(C)(C)C)[C@@]2(C(=O)Nc3cc(Cl)ccc32)[C@H]1c1cccc(Cl)c1F [Example 181, chiral (2′S,3′R,4′S,5′R)-6-chloro-4′-(3-chloro-2-fluoro-phenyl)-2′-(2,2-dimethyl-propyl)-2-oxo-1,2-dihydro-spiro[indole-3,3′-pyrrolidine]-5′-carboxylic acid [4-(3-methanesulfonyl-propoxy)-2-methoxy-phenyl]-amide]	6 nM
